From US5880076A, “Compositions comprising glycacarbamate and glycaurea compounds” (Lever Brothers Company, Division of Conopco, Inc., priority 1997, dated 1999)
Values belong to the compound of their own block, whether it stands above or below them.

Legend:
[1] = Critical Micelle Concentration (micelle formation); format: physicochemical
From the text: The critical micelle concentration (CMC) is defined as the concentration at which a surfactant forms micelles in aqueous solution. […] A necessary and sufficient condition for CMC formation and surface tension reduction is the presence of both hydrophilic and hydrophobic functional groups. The hydrophilic portion provides strong interaction between the surfactant at the interface and with the surrounding water phase. The hydrophobic portion provides spontaneous adsorption of the surfactant at the interface and strong interaction with the adjacent air phase. If any of these functions are not performed, then CMC formation and surface tension reduction will not occur. For significant surface activity, a properly balanced hydrophilic and hydrophobic character is essential.

[2] = Surface Tension Reduction; format: physicochemical
From the text: An important characteristic feature that surfactants have is the tendency for them to absorb at the water/air interface in an oriented manner, thereby altering the interfacial free energy of that surface. The surface free energy per unit area or surface tension (γ), is a measure of this work and may be considered as the minimum amount of work required to bring sufficient surfactant molecules to the surface.

[3] = Water Solubility and Krafft Point (0.1% solution in water, 40° C.)
From the text: The temperature at which a surfactant forms micelles instead of precipitates is referred to as the Krafft point (Tk), and at or below this temperature the solubility of a surfactant becomes equal to its CMC (numerical value at which micelles are formed).

[4] = Viscosity Enhancement/Foam Stabilization (Brookfield Digital Viscometer); details: for Viscosity (Centipoise): 22° C.
[5] = Flow aids: water uptake and appearance of intimate admixtures; format: physicochemical; details: for Appearance (flow) / % H2O Uptake: 25° C., 65% R.H.; for % H2O Uptake: based on builder; for handling and flowing characteristics (in words): intimate admixtures with ODS, SCMOS, CP-5 or CP-7
From the text: It is known in the are that certain ingredients are hygroscopic in nature and liquify after exposure to moisture after a few days. […] Samples were removed periodically, weighed and returned to R. H. chamber. Percent water uptake was based on the amound of builder present. % H2 O Uptake=grams of water absorbed/grams of builder×100 Identical mixtures of ODS, SCMOS, CP-5 or CP-7 and methyl α-D-glucose-6-O-monolaurate (c12 Mgluc), dodecyl β-D-glucopyranoside (C12 Gluc), dodecyl β-D-maltoside (C12 Malt), D-glucose or D-sorbitol were also prepared and are used for comparison. When the comparative sugar surfactant of monosacchardie are used, percent water uptake was based on the amount of saccharide present. % H2 O Uptake=grams of water absorbed/grams of saccharide×100

[6] = Viscosity Modification of Sodium Lauryl Sulfate prototype detergent compositions; format: physicochemical; details: for Appearance (viscosity) / Viscosity Increase: 15.0% sodium lauryl sulfate; for Viscosity Increase: 22° C.
Description: The prototype detergent compositions are as follows:
(§1) Detergent Compositions Comprising Sodium
(§2) Lauryl Sulfate and Glycacarbamate Compounds
N-Dodecyl D-Glucocarbamate
2.0-7.0% Foam Stabilizer/Thickener
(§3) 2.0% Viscosity Cobuilder
(§4) Lauryl Sulfate and Glycaurea Compounds
(§5) The above formulations were prepared by admixing the above ingredients in listed order and heating the mixture to about 80° C. with rapid stirring. The mixture was then cooled to about 40° C., placed in a clear jar and stored at room temperature.
It is well known that the viscosity of a liquid composition comprision of anionic surfactant can be modified by the addition of inorganic salts, such as sodium chloride. However, in the absence of an organic modifier, high levels of salt may be necessary to achieve the required viscosity which may lead to problems of storage at cold temperature or even salting our certain ingrediets. In practice, however, the viscosity of a liquid compositionis modified by the simultaneous addition of thickener and small amounts of inorganic salt (viscosity cobuilder). The combined effect is greater than either one alone. The viscosity of the above prototype detergent compositions comprising various amounts of glycacarbamate/urea compound are as follows: […]

[7] = Clarity Enhancement of prototype detergent compositions; format: physicochemical; details: detergent formulation
Description: The formulations were placed in a clear jar and stored for 1 month. The prototype detergent compositions are as follows:
as §1, §2
N-Coconut D-Glucocarbamate
0.5-4.0% Foam Stabilizer/Thickener
as §4, §5
For a clear detergent formulation to be successful it must have good shelf life and should not become turbid or produce sedimentation upon standing.

[8] = Pearlescent/Suspending Action in prototype personal product compositions; format: physicochemical; details: for Appearance (pearlescence/suspending): 15.0% sodium lauryl sulfate, room temperature, 1 month
Description: The formulations were placed in a clear jar and stored for 1 month. The prototype personal product compositions are as follows:
Personal Product Compositions Comprising Sodium
as §2
N-Tallow D-Glucocarbamate
0.5-4.0% Pearlescent/Suspending
as §3, §4, §5
For a pearlecent personal product formulation to be successful it must have good shelf life and should not separate upon standing.

[9] = Water solubility and turbidity in aqueous personal product and detergent compositions (statement)

Compound: CCCCCCCCCCN(C[C@H](O)[C@@H](O)[C@H](O)[C@H](O)CO)C(N)=O [N-Decyl D-Glucourea]
CMC at 40° C. (micelle formation) ([1]; 40° C.): Yes
Surface tension reduction (γ) at 40° C. ([2]; 40° C.): Yes
H2O Solubility at 40° C. ([3]; 40° C.): Yes
Krafft point (Tk) ([3]; 40° C.): Below Tk

Compound: CCCCCCCCCCCC(=O)N(CCO)CCO [Lauramide DEA, lauric diethanolamide, reference compound]
Foam Stability ([4]; 4.0% thickener): Yes
Viscosity (Centipoise) ([4]; 4.0% thickener): 2376 Centipoise

Compound: tetrasodium sulfocarboxymethyloxysuccinate [Na4 SCMOS, reference compound]
Appearance (flow) ([5]; 9 days): Sticky Paste
% H2O Uptake ([5]; 9 days): 38%

Compound: CCCCCCCCCCCCCCN1C[C@H](O)[C@H]([C@H](O)[C@H](O)CO)OC1=O [N-Tetradecyl D-Glucocarbamate]
CMC at 40° C. (micelle formation) ([1]; with slight heating): Yes
Surface tension reduction (γ) at 40° C. ([2]; with slight heating): Yes
handling and flowing characteristics (in words) [5]: improved the handling and flowing characteristics
H2O Solubility at 40° C. ([3]; with slight heating): Yes
Krafft point (Tk) ([3]; with slight heating): Below Tk

Compound: O=C[C@H](O)[C@@H](O)[C@H](O)[C@H](O)CO [D-Glucose, D-glucose, reference compound]
Appearance (viscosity) ([6]; 2.0% thickener): Purable Liquid
Viscosity Increase ([6]; 2.0% thickener): No
Appearance (viscosity) ([6]; 4.0% thickener): Purable Liquid
Viscosity Increase ([6]; 4.0% thickener): No
Appearance (viscosity) ([6]; 7.0% thickener): Purable Liquid
Viscosity Increase ([6]; 7.0% thickener): No
Foam Stability ([4]; 4.0% thickener): No
Viscosity (Centipoise) ([4]; 4.0% thickener): 27 Centipoise

Compound: O=C([O-])CC(OC(CC(=O)[O-])C(=O)[O-])C(=O)[O-].[Na+].[Na+].[Na+].[Na+] (centres unmarked) [Na4 ODS, tetrasodium oxydisuccinate, reference compound]
Appearance (flow) ([5]; 4 days): Liquid
% H2O Uptake ([5]; 4 days): 59%

Second part, led by results:

CMC at 40° C. (micelle formation) ([1]; 40° C.): Yes
Surface tension reduction (γ) at 40° C. ([2]; 40° C.): Yes
H2O Solubility at 40° C. ([3]; 40° C.): Yes
Krafft point (Tk) ([3]; 40° C.): Below Tk
Compound: CCCCCCCCN1C[C@H](O)[C@H]([C@H](O)[C@H](O)CO)OC1=O [N-Octyl D-Glucocarbamate]

CMC at 40° C. (micelle formation) ([1]; 40° C.): No
CMC at 40° C. (micelle formation) ([1]; 40° C., listed as F): do not form micelles
Surface tension reduction (γ) at 40° C. ([2]; 40° C.): No
H2O Solubility at 40° C. ([3]; 40° C.): No
Krafft point (Tk) ([3]; 40° C.): Above Tk
H2O Solubility at 40° C. ([3]; 40° C., listed as F): insoluble in water
Compound: CCCCCCCCCCCCCCCCCCN1C[C@H](O)[C@H]([C@H](O)[C@H](O)CO)OC1=O [N-Octadecyl D-Glucocarbamate]
Surface tension reduction (γ) at 40° C. ([2]; 40° C., listed as F): do not significantly reduce the surface tension of water

CMC at 40° C. (micelle formation) ([1]; 40° C.): No
CMC at 40° C. (micelle formation) ([1]; 40° C., listed as E): do not form micelles
Surface tension reduction (γ) at 40° C. ([2]; 40° C.): No
H2O Solubility at 40° C. ([3]; 40° C.): No
Krafft point (Tk) ([3]; 40° C.): Above Tk
H2O Solubility at 40° C. ([3]; 40° C., listed as E): insoluble in water
Compound: CCCCCCCCCCCCCCCCN1C[C@H](O)[C@H]([C@H](O)[C@H](O)CO)OC1=O [N-Hexadecyl D-Glucocarbamate]
Surface tension reduction (γ) at 40° C. ([2]; 40° C., listed as E): do not significantly reduce the surface tension of water

CMC at 40° C. (micelle formation) ([1]; 40° C.): Yes
CMC at 40° C. (micelle formation) ([1]; 40° C., listed as M): do not form micelles
Surface tension reduction (γ) at 40° C. ([2]; 40° C.): Yes
Appearance (viscosity) ([6]; 2.0% thickener): Slightly Viscous
Viscosity Increase ([6]; 2.0% thickener): Yes
Appearance (viscosity) ([6]; 4.0% thickener): Viscous
Viscosity Increase ([6]; 4.0% thickener): Yes
Appearance (viscosity) ([6]; 7.0% thickener): Very Viscous
Viscosity Increase ([6]; 7.0% thickener): Yes
clarity (in words) [7]: clear without sedimentation
H2O Solubility at 40° C. ([3]; 40° C.): Yes
Krafft point (Tk) ([3]; 40° C.): Below Tk
H2O Solubility at 40° C. ([3]; 40° C., listed as M): insoluble in water
Foam Stability ([4]; 4.0% thickener): Yes
viscosity increase from normal viscosity ([4]; 4.0% thickener): 99-104 times
Viscosity (Centipoise) ([4]; 4.0% thickener): 2295 Centipoise
Foam Stability ([4]; 4.0% thickener, listed as N-dodecyl D-glucourea): stabilize foam
Compound: CCCCCCCCCCCCN(C[C@H](O)[C@@H](O)[C@H](O)[C@H](O)CO)C(N)=O [N-Dodecyl D-Glucourea]
Surface tension reduction (γ) at 40° C. ([2]; 40° C., listed as M): do not significantly reduce the surface tension of water
viscosity increase (in words) ([6]; compared with D-glucose): increases the viscosity of that composition more effectively than D-glucose
handling and flowing characteristics (in words) [5]: improved the handling and flowing characteristics
viscosity enhancement and foam stabilization (comparison in words) ([4]; compared with lauramide DEA, cocoamide MEA, Neodol 91-6 and D-glucose): enhance viscosity and stabilze foam compartively to lauramide diethanolamine (DEA), but better than cocoamide menoethanolamine (MEA), Neodol 91-6 (C9 -C11 alcohol ethoxylate with 6 moles of ethylene oxide) and D-glucose

CMC at 40° C. (micelle formation) ([1]; 40° C.): Yes
Surface tension reduction (γ) at 40° C. ([2]; 40° C.): Yes
H2O Solubility at 40° C. ([3]; 40° C.): Yes
Krafft point (Tk) ([3]; 40° C.): Below Tk
Compound: CCCCCCCCCCN1C[C@H](O)[C@H]([C@H](O)[C@H](O)CO)OC1=O [N-Decyl D-Glucocarbamate]

CMC at 40° C. (micelle formation) ([1]; 40° C.): No
Surface tension reduction (γ) at 40° C. ([2]; 40° C.): No
Appearance (pearlescence/suspending) ([8]; 0.5% opacifier): Pearlescent/Suspending Action
Appearance (pearlescence/suspending) ([8]; 1.0% opacifier): Pearlescent/Suspending Action
Appearance (pearlescence/suspending) ([8]; 2.0% opacifier): Pearlescent/Suspending Action
Appearance (pearlescence/suspending) ([8]; 3.0% opacifier): Pearlescent/Suspending Action
Appearance (pearlescence/suspending) ([8]; 4.0% opacifier): Pearlescent/Suspending Action
pearlescence (in words) ([8]; sodium lauryl sulfate compositions): excellent pearlescence
H2O Solubility at 40° C. ([3]; 40° C.): No
Krafft point (Tk) ([3]; 40° C.): Above Tk
Compound: CCCCCCCCCCCCCCCCN(C[C@H](O)[C@@H](O)[C@H](O)[C@H](O)CO)C(N)=O [N-Hexadecyl D-Glucourea]
handling and flowing characteristics (in words) [5]: improved the handling and flowing characteristics

CMC at 40° C. (micelle formation) ([1]; 40° C.): Yes
Surface tension reduction (γ) at 40° C. ([2]; 40° C.): Yes
H2O Solubility at 40° C. ([3]; 40° C.): Yes
Krafft point (Tk) ([3]; 40° C.): Below Tk
water solubility ([9]; compared to other known glycacarbamate and glycaurea compounds): enhanced water solubility
turbidity ([9]; in aqueous personal product and detergent compositions): less turbid
Compound: CCCCCCCCCCCCN1C[C@H](O)[C@H]([C@H](O[C@H]2O[C@H](CO)[C@@H](O)[C@H](O)[C@H]2O)[C@H](O)CO)OC1=O [N-Dodecyl D-Maltocarbamate]
